Laboratory results taken from the METLIN SMRT retention time set (Domingo-Almenara et al. 2019).

Assay: gradient 5% acetonitrile 3 min, to 50% in 2 min, to 85% in 15 min, held 3 min, 100 µL/min
Conditions: column: Zorbax Extend-C18 2.1 x 50 mm; eluents: water / acetonitrile, 0.1% formic acid
In short: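 In both positive and negative ionization mode, a quadrupole time-of-flight mass spectrometer coupled to HPLC analyzed pure standards run in mixtures of ~100 molecules. The Zorbax Extend-C18 column (2.1 × 50 mm, 1.8 μm) was operated at 100 μL/min with water and acetonitrile, each containing 0.1% formic acid. The dead volume was 40 μL and the dwell volume 900 μL. Retention time came from adduct peaks that were computationally picked and individually inspected by hand.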

Compound	RP-LC retention time [s]
Cc1cccc(-n2c(=O)c3c(cc(C)n3C)n(CC(=O)Nc3c(C)cccc3C)c2=O)c1	906
CCc1ccccc1S(=O)(=O)N1CCc2nc(-c3ccc(OC)cc3)ncc2C1	1150
Cc1c(CCC(=O)NCc2cccnc2)c(=O)n2nc(-c3ccc(Cl)cc3)nc2n1C	632
Cc1cc(N2CCN(C(=O)c3ccco3)CC2)nc(N2CCOCC2)n1	566
O=C(c1cn(-c2cc(-c3nc(C4CC4)no3)ccn2)cn1)N1CCOCC1	708
CCn1cc(CCN2CCN(C(=O)Cc3cccs3)CC2)c2cccnc21	590
Cc1ccc2nc(-c3ccc(NC(=O)c4cnc5sccn5c4=O)cc3)sc2c1	1110
C=CCN1C(=O)COc2ccc(-c3csc(NC(=O)c4cccc(Br)c4)n3)cc21	1120
Cc1cccnc1NC(=O)c1csnn1	637
CC1CCN(c2cc(-n3cnc(C(=O)N4CCc5ccccc5C4)c3)ncn2)CC1	1060
O=C(c1ccsc1)N1CCC2(CC1)NC(=O)N(Cc1cccc(Cl)c1)C2=O	816
COc1cccc(N2CCN(C(=O)C3CCN(c4cnc5nccnc5c4)CC3)CC2)c1	728
CC1(C)CC2(CCO1)OC(=O)CC2C(=O)Nc1ccccc1Cl (stereo unspecified)	753
Cc1ccc(CNC(=O)C2CCCN(S(=O)(=O)c3c[nH]c(C(=O)N4CCCCCC4)c3)C2)cc1 (stereo unspecified)	883
Cc1oc2cc3oc(=O)c(CC(=O)N[C@@H](Cc4c[nH]c5ccccc45)C(=O)O)c(C)c3cc2c1C	863
O=C(COc1ccc(Cl)cc1)N1CCC2(C1)C(=O)Nc1ccccc12 (stereo unspecified)	776
CC(=O)N1CCc2cc(N3CC(C(=O)NCc4ccco4)CC3=O)ccc21 (stereo unspecified)	640
O=C(NCc1ccnc(N2CCCCCC2)c1)Nc1ccc2c(c1)OCO2	622
Cn1nc(-c2nnc(-c3ccccc3Cl)o2)c2c1CCN(C(=O)COc1ccc(F)cc1)C2	891

Results, then the compound that gave them:

RP-LC retention time [s]	Compound
715	CCCNC(=O)C1CCN(c2ccc(SCC(=O)Nc3ccccc3C(=O)OCC)nn2)CC1
856	COc1ccc(C)cc1NC(=O)Cn1nc(N2CCOCC2)c2ccccc2c1=O
928	Cn1nc(-c2nnc(-c3ccccc3F)o2)c2c1CCN(S(=O)(=O)c1ccccc1Cl)C2
864	CC(=O)Nc1onc(C)c1-c1ccc(C)c(S(=O)(=O)Nc2ccc(C)cc2Cl)c1
570	CC1CCCCN1CCNC(=O)C1CCCN(c2cnc3nccnc3c2)C1 (stereo unspecified)
811	COC(=O)c1ccccc1NC(=O)CCCn1cnc(-c2ccccc2)cc1=O
684	COc1cccc(CNC(=O)NCCc2nc3cccnc3n2C2CCCC2)c1
800	O=C(Nc1cccc(F)c1)C1CCc2nc(N3CCCCC3)ncc2C1 (stereo unspecified)
941	COc1ccc(C(=O)CSc2nnnn2-c2cccc(C)c2)cc1
1100	Cc1ccc(-c2noc(Cn3ncn4nc(-c5cccs5)cc4c3=O)n2)cc1
898	CCOCCCNC(=O)Cn1nc(C)c2nn(-c3ccc(Cl)cc3)c(-n3cccc3)c2c1=O
864	CSc1ccc(-c2nc3ncccn3c2Nc2c(C)cccc2C)cc1
1010	Cc1cc(NC(=O)c2ccccc2Br)nc2c1c(=O)oc1ccccc12
948	Cc1ccc(-c2cc3n(n2)CCCN(C(=O)c2ccc(C)s2)C3)cc1
619	COc1ccc(NC(=O)Cn2ccnc2-c2ccnc(N3CCSCC3)c2)cc1OC
611	Cn1cc(-c2cc3n(n2)CCCN3C(=O)CCC(=O)NCCCN2CCOCC2)c2ccccc21
752	CCN1CCn2cc(S(=O)(=O)Nc3ccc(Cl)cc3F)cc2C1=O
